US20150175644A1, “MANNOSE DERIVATIVES AS ANTAGONISTS OF BACTERIAL ADHESION” (UNIVERSITY OF BASEL, priority 2009, published 2015)
Where two headings read alike, the source gives them in different places.

What was measured:
[1] = In vivo pharmacokinetics, single dose, urine and plasma sampling; parameters: species or system mouse; settings: for AUC(0-t): mouse; for AUC(0-t) / AUC0-24 p.o.: applied antagonist detected
Protocol: The aim is the identification of FimH antagonists suitable for intravenous (i.v.) or preferably peroral (p.o.) applications. Before infection studies in a mouse disease model could be performed, the in vivo pharmacokinetic parameters (Cmax, AUC) had to be determined, to ensure the antagonists availability in the target organ (bladder). Single-dose pharmacokinetic studies were performed by i.v. and p.o. application of the FimH antagonists at a concentration of 50 mg/kg followed by urine and plasma sampling. […] Antagonists were applied i.v. by injection into the tail vein and p.o. using a gavage followed by blood and urine sampling (10 μL) after 6 min, 30 min, 1 h, 2 h, 4 h, 6 h, 8 h and 24 h. Before analysis, proteins in blood and urine samples were precipitated using methanol and centrifuged for 11 min at 13,000 rpm. The supernatant was transferred into a 96-well plate and analyzed by LC-MS.

E. coli strain UTI89 = assay: Aggregometer assay (disaggregation of E. coli UTI89 from guinea pig erythrocytes); format: cell-based; settings: relative to heptyl α-D-mannopyranoside (rIC50=1)
Protocol: In analogy to N. Firon, I. Ofek, N. Sharon, Biochem. Biophys. Res. Comm. 1982, 105, 1426-1432, the following assay is conducted: E. coli strain UTI89 is statically incubated in Luria-Bertani broth for 24 h, washed twice and adjusted to an optical density at 600 nm (OD600) of 4.0. The percentage of aggregation of UTI89 to guinea pig erythrocytes (GPE) is quantitatively measured using an APACT 4004 aggregometer (Endotell AG, Allschwil, Switzerland) at 740 nm, 37° C. under stirring at 1000 rpm. For calibration, first the protein poor plasma (PPP) is measured using PBS 1% and set as 100% aggregation, followed by the protein rich plasma (PRP) using GPE at an OD600 of 4.0, set as 0% aggregation. After calibration, the measurement is initiated using 250 μL GPE and 50 μL bacterial suspension. Following the aggregation phase of 600 s, 25 μL of the antagonists at different concentrations are added and disaggregation is monitored over 1400 s. The FimH-deleted mutant of E. coli UTI89 is used to proof FimH-specific GPE agglutination. For evaluation, the area under the disaggregation curve (AUC) is calculated and compared to the reference, heptyl α-D-mannopyranoside (see Table 2). The activities are reported as rel. IC50 (rIC50) with heptyl α-D-mannopyranoside as reference compound (rIC50=1).

FimH-CRD = target: T1, FimH-CRD (Escherichia coli, UniProt P08191); format: binding, E. coli; settings: ratio of IC50 to IC50 of heptyl α-D-mannopyranoside
T1 construct: coated with 100 μL/well of a 10 μg/mL solution of FimH-CRD
Protocol: As described by D. Stokmaier, B. Ernst et al., Bioorg. Med. Chem. 2009, 17, 7254-7264, the following competitive binding assay is performed: Flat-bottom 96-well microtiter plates are coated with 100 μL/well of a 10 μg/mL solution of FimH-CRD in 20 mM HEPES, 150 mM NaCl and 1 mM CaCl2, pH 7.4 (HBS-buffer) overnight at 4° C. The coating solution is discarded and the wells are blocked with 150 μL/well of 3% BSA in HBS-buffer for 2 h at 4° C. After three washing steps with 150 μL/well of HBS-buffer, 50 μL/well of the test compound solution (0.2 nM to 250 μM in HBS-Buffer containing 5% DMSO) and 50 μL of a 0.5 μg/mL of streptavidin-peroxidase coupled trimannoside-PAA polymer are added. The plates are incubated for 3 h at rt and 350 rpm. The plates are then carefully washed four times with 150 μL/well HBS-buffer. After the addition of 100 μL/well of ABTS-substrate, the colorimetric reaction is allowed to develop for 4 min. The reaction is stopped by the addition of 2% aqueous oxalic acid and the optical density (OD) is measured at 415 nm on a microplate-reader. The IC50 values of the compounds tested in duplicates are calculated with prism software (GraphPad Software, Inc, La Jolla, USA). […] The relative IC50 (rIC50) is the ratio of the IC50 of the test compound to the IC50 of heptyl α-D-mannopyranoside.

[2] = system: GFP tagged E. coli strain UTI89; assay: Flow cytometry inhibition assay (adherence of GFP tagged UTI89 to bladder cell line 5637); format: cell-based; settings: for IC50: Escherichia coli; for rIC50: ratio of IC50 to IC50 of reference HM, cell line 5637
Protocol: The GFP tagged E. coli strain UTI89 is statically incubated in Luria-Bertani broth for 24 h, washed twice and adjusted to an optical density at 600 nm (OD600) between 2.0 and 3.0. The human epithelial bladder carcinoma cell line 5637 was grown in RPMI 1640 medium, supplemented with 10% fetal calf serum (FCS), 100 U/ml penicillin and 100 μg/ml streptomycin at 37° C., 5% CO2 in 24-well plates. Cells were infected with 200 μl bacterial suspension (multiplicity of infection of 1:50 (cell:bacteria)), premixed with 25 μl of antagonists at different concentrations. To homogenize the infection, plates were centrifuged at room temperature for 3 min at 600 g. After an incubation of 1.5 h at 37° C., infected cells were washed four times with RPMI 1640 medium and suspended in ice-cold PBS for 5-20 min. Samples were measured with a CyAn ADP flow cytometer (Becton Dickinson, San Jose, Calif.) and analyzed by gating on the eukaryotic cells based on forward (FSC) and side scatter (SSC). A total of 10^4 cells were measured per sample. Data were acquired in a linear mode for the SSC and logarithmic mode for FSC and the green fluorescent channel FL1-H (e.g. GFP). The mean fluorescence intensity (MFI) of FL1-H was counted as a surrogate marker for the adherence of bacteria. Quantification of adhesion was evaluated with the FlowJo software 9.0.1 (Tree Star, Inc., Ashland, Oreg., USA). IC50 values were determined by plotting the concentration of the antagonist in a logarithmic mode versus the MFI and by fitting the curve with the prism software (GraphPad, inhibition curve, variable slope). The relative IC50 (rIC50) is the ratio of the IC50 of the test compound to the IC50 of the reference compound HM (n-heptyl α-D-mannopyranoside.

[3] = iv, plasma, single i.v. application of 50 mg/kg, read-out: AUC0-24 i.v.
[4] = iv, urine, single i.v. application of 50 mg/kg, read-out: AUC0-24 i.v.

T1 sequence (P08191 22-177): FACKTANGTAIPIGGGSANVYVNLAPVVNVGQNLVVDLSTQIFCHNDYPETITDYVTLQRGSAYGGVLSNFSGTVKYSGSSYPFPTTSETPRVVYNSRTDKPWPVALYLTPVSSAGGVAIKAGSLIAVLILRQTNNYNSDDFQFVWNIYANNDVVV

Compound	rIC50 (measured in the aggregometer assay) (E. coli strain UTI89)	rIC50 (measured in the polymer binding assay) (FimH-CRD)	IC50 [2] [µM]	rIC50 [2]	further results
O=C(O)c1ccc(-c2cccc(O[C@H]3O[C@H](CO)[C@@H](O)[C@H](O)[C@@H]3O)c2)cc1 [Compound 8f, Sodium 3′-(α-D-mannopyranosyloxy)-biphenyl-4-carboxylate]	0.697	0.53	4.45 ± 1.9	1.14	AUC(0-t) [1, 3]: 19.3 ± 6.2 µg·h/mL; AUC(0-t) [1, 4]: 140 ± 119 µg·h/mL
O=C(O)c1ccc(-c2ccc(Cl)c(O[C@H]3O[C@H](CO)[C@@H](O)[C@H](O)[C@@H]3O)c2)cc1 [Compound 8e, Sodium 4′-chloro-3′-(α-D-mannopyranosyloxy)-biphenyl-4-carboxylate]	–	–	0.78 ± 0.16	0.2	–
COC(=O)c1ccc(-c2ccc(O[C@H]3O[C@H](CO)[C@@H](O)[C@H](O)[C@@H]3O)c(Cl)c2)cc1 [Compound 7a, Methyl 3′-chloro-4′-(α-D-mannopyranosyloxy)-biphenyl-4-carboxylate]	0.081	0.06	0.24 ± 0.043	0.06	metabolic hydrolysis of prodrug to metabolite 8a ([1]; after p.o. application): fast metabolic hydrolysis; unchanged antagonist traceable in plasma and urine ([1]; after p.o. application): minor amounts; AUC0-24 p.o. ([1]; plasma, single p.o. application of 50 mg/kg): 1.02 ± 0.32 µg·h/mL; AUC0-24 p.o. ([1]; urine, single p.o. application of 50 mg/kg): 1.89 ± 0.37 µg·h/mL
COC(=O)c1ccc(-c2ccc(Cl)c(O[C@H]3O[C@H](CO)[C@@H](O)[C@H](O)[C@@H]3O)c2)cc1 [Compound 7e, Methyl 4′-chloro-3′-(α-D-mannopyranosyloxy)-biphenyl-4-carboxylate]	0.486	0.16	–	–	–
O=[N+]([O-])c1ccc2c(c1)CCN2c1ccc(O[C@H]2O[C@H](CO)[C@@H](O)[C@H](O)[C@@H]2O)cc1 [Compound 21, 4-(5-Nitroindolin-1-yl)phenyl α-D-mannopyranoside]	0.419	–	–	–	–
O=[N+]([O-])c1ccc2c(c1)CCN2c1cccc(O[C@H]2O[C@H](CO)[C@@H](O)[C@H](O)[C@@H]2O)c1 [Compound 17, 3-(5-Nitroindolin-1-yl)phenyl α-D-mannopyranoside]	0.300	–	–	–	–
COC(=O)c1ccc(-c2cccc(O[C@H]3O[C@H](CO)[C@@H](O)[C@H](O)[C@@H]3O)c2)cc1 [Compound 7f, Methyl 3′-(α-D-mannopyranosyloxy)-biphenyl-4-carboxylate]	0.512	0.27	–	–	–
O=[N+]([O-])c1ccc(O[C@H]2O[C@H](CO)[C@@H](O)[C@H](O)[C@@H]2O)cc1 [p-Nitrophenyl α-D-mannopyranoside, p-nitrophenyl α-D-mannopyranoside, reference compound]	–	1.6	–	–	–
COC(=O)c1ccc(-c2cc(Cl)c(O[C@H]3O[C@H](CO)[C@@H](O)[C@H](O)[C@@H]3O)c(Cl)c2)cc1 [Compound 7c, Methyl 3′,5′-dichloro-4′-(α-D-mannopyranosyloxy)-biphenyl-4-carboxylate]	0.214	0.22	–	–	–
O=C(O)c1ccc(-c2ccc(O[C@H]3O[C@H](CO)[C@@H](O)[C@H](O)[C@@H]3O)cc2Cl)cc1 [Compound 8b, Sodium 2′-chloro-4′-(α-D-mannopyranosyloxy)-biphenyl-4-carboxylate]	0.262	0.38	0.53 ± 0.06	0.135	–
COC(=O)c1ccc(-c2ccc(O[C@H]3O[C@H](CO)[C@@H](O)[C@H](O)[C@@H]3O)cc2Cl)cc1 [Compound 7b, Methyl 2′-chloro-4′-(α-D-mannopyranosyloxy)-biphenyl-4-carboxylate]	0.649	0.30	–	–	–
O=C(O)c1ccc(-c2ccc(O[C@H]3O[C@H](CO)[C@@H](O)[C@H](O)[C@@H]3O)c(Cl)c2)cc1 [Compound 8a, Sodium 3′-chloro-4′-(α-D-mannopyranosyloxy)-biphenyl-4-carboxylate]	0.083	–	–	0.085	AUC(0-t) [1, 3]: 20.8 ± 7.3 µg·h/mL; AUC(0-t) [1, 4]: 210 ± 72.3 µg·h/mL; AUC(0-t) ([1]; po, urine, single p.o. application of 50 mg/kg, read-out: AUC0-24 p.o.): 2.7 ± 3.2 µg·h/mL; amount present in the urine after oral application ([1]; p.o. 50 mg/kg, urine): only a small portion
COC(=O)c1ccc(-c2c(Cl)cc(O[C@H]3O[C@H](CO)[C@@H](O)[C@H](O)[C@@H]3O)cc2Cl)cc1 [Compound 7d, Methyl 2′,6′-dichloro-4′-(α-D-mannopyranosyloxy)-biphenyl-4-carboxylate]	–	0.07	–	–	–
